Experimental data reported in paper PMC8857485, “Prostate secretory protein 94 inhibits sterol binding and export by the mammalian CAP protein CRISP2 in a calcium-sensitive manner” (The Journal of Biological Chemistry, 2022).

How the values were obtained:
[1] = biological target: T1, CRISP2–PSP94 heteromeric complex (Homo sapiens, UniProt P16562); experiment: Coimmunoprecipitation of PSP94-FLAG with CRISP2-HA from culture medium; assay type: cell-based, Saccharomyces cerevisiae
T1 construct: expressed in transfected cells; host or cells: Saccharomyces cerevisiae, plasmids pRS416 (CRISP2) and pRS414 (PSP94), ADH1 promoter
Protocol: To test whether calcium also affects the formation of the heteromeric complex in vivo, we analyzed complex formation by coimmunoprecipitation. Cells expressing CRISP2-HA and PSP94-FLAG were cultivated in the absence or presence of calcium (5 and 10 mM CaCl2), CRISP2-HA was immunoprecipitated from the culture medium, and Western blots were probed for the presence of PSP94-FLAG.
For Coimmunoprecipitation analysis, CRISP2 wildtype and mutant versions were tagged with an HA epitope tag, and wildtype PSP94 and the PSP94^F24G mutant version were fused to a FLAG tag. Yeast strains expressing these proteins were grown overnight and collected by centrifugation. The cell pellet was resuspended in lysis buffer (50 mM Tris-HCl pH 7.5, 100 mM NaCl, 0.1% NP-40, 10% glycerol, protease inhibitor, and 1 mM PMSF), and cells were broken with glass beads in a Precellys homogenizer. The culture medium was concentrated using size-exclusion protein concentrator spin columns (3K MWCO, Pierce, Thermo Scientific). Protein concentration was estimated by Bradford assay (Bio-Rad), and both the cell lysate and concentrated culture medium were incubated overnight at 4 °C with anti-HA magnetic beads (Pierce, Thermo Scientific). […] Samples were denatured for 10 min at 95 °C and analyzed by SDS-PAGE and Western blotting. […]

[2] = biological target: T2, PSP94 (Homo sapiens, UniProt P08118); experiment: MST binding to PSP94; settings: calcium chloride titration
T2 construct: made in house; host or cells: E. coli BL21
T2 sequence (P08118 21-114): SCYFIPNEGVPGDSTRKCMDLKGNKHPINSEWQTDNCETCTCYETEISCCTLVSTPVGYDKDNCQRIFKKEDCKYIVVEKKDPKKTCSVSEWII
Protocol: To test whether the interaction between PSP94 and CAP family members affects their sterol binding in vitro, we performed ligand binding assays using a more water-soluble cholesterol derivative, cholesterol sulfate. […] In the presence of an equimolar concentration of PSP94, however, sterol binding by the CAP proteins was blocked (Fig. 3B).
MST experiments were performed to assess protein–protein, protein–lipid, and protein–calcium interactions using a Monolith NT.115 (Nanotemper Technologies). Proteins were labeled using the RED-tris-NTA His tag protein labeling kit. Labeled CAP proteins, 100 nM, were mixed with a serial dilution of unlabeled PSP94, PSP9^F24G, cholesterol sulfate, or calcium chloride, prepared in binding buffer (20 mM Tris pH 7.5, 30 mM NaCl, 0.05% Triton X-100). Samples were loaded into MST standard capillaries, and MST measurements were performed using an 80% laser power setting. The dissociation constant Kd was obtained by plotting the normalized fluorescence (Fnorm) against the logarithm of ligand concentration. Experiments were performed in triplicates, and data were fitted using the Kd model of the MO.Affinity Analysis software (Nanotemper Technologies). For binding inhibition studies, CAP proteins and PSP94 were preincubated for 5 min at 24 °C before performing binding studies with cholesterol sulfate.

[3] = system: sterol export by CAP proteins (Pry1, CRISP2, CRISP3); experiment: In vivo sterol export assay ([14C]cholesteryl acetate export) in yeast; assay type: cell-based, Saccharomyces cerevisiae; settings: 10 mM calcium in medium, cells expressing CRISP2 and PSP94
From the text: To test whether expression of PSP94 would affect the function of Pry1 in sterol export, we expressed PSP94 fused to the N-terminal signal sequence from Pry1 (amino acids 1–19) from a constitutive alcohol dehydrogenase promoter (ADH1) to direct the protein into the yeast secretory pathway. This PSP94-containing plasmid was then transformed into heme-deficient yeast cells lacking the sterol deacetylase Say1 (hem1Δ say1Δ). This strain is able to take up radiolabeled [^14C]cholesterol, acetylate it in an alcohol acetyltransferase 2 (Atf2)-dependent pathway, and secrete the resulting radiolabeled cholesteryl acetate back into the culture medium ([29]). […] To test whether expression of PSP94 would affect the synthesis or secretion of Pry1, CRISP2, or CRISP3, we coexpressed FLAG-tagged PSP94 with hemagglutinin (HA)-tagged Pry1, CRISP2, or CRISP3, separated yeast cells from the culture medium, precipitated proteins from both fractions with trichloroacetic acid (TCA), and detected the tagged proteins by Western blotting.
The sterol export assay was performed as described ([29]). […] Extracted radiolabeled lipids were quantified by scintillation counting, and volumes corresponding to 10,000 cpm (counts per minute) were dried. […] TLC plates were then exposed to phosphorimager screens, and radiolabeled lipids were visualized and quantified using a phosphorimager. […]

[4] = biological target: T3, CRISP2 (Homo sapiens, UniProt P16562); experiment: MST binding to CRISP2; parameters: species or system mammalian; settings: calcium chloride titration, read-out: Kd, calcium binding by CRISP2
T3 construct: made in house; host or cells: E. coli BL21
T3 sequence (P16562 22-243): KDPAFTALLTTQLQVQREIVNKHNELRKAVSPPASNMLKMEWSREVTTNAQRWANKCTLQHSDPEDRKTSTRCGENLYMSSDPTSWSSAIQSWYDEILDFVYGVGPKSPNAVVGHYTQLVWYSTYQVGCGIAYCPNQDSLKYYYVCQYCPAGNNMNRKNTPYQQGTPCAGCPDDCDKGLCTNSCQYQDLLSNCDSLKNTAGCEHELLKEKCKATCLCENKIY
From the text: To confirm the direct interaction of PSP94 with CRISP3 and to test whether PSP94 would also bind other CAP family members such as yeast Pry1, or CRISP2, we performed in vitro protein binding assay using microscale thermophoresis (MST). Therefore, PSP94 and the CAP family members, Pry1, CRISP2, and CRISP3, were expressed as fusion proteins with a C-terminal polyhistidine tag in Escherichia coli, and the proteins were affinity purified on nickel-NTA agarose beads. The purified CAP proteins were then fluorescently labeled using RED-tris-NTA and incubated with varying concentrations of PSP94. […] PSP94 thus has high binding affinity for all three CAP proteins tested, and it also binds the CAP domain of Pry1 (Pry1^CAP) alone.
DNA encoding proteins of interest were PCR amplified and cloned into NcoI and XhoI restriction sites of pET22b, which contains a PelB signal sequence to direct the secretion of expressed protein into the periplasmic space. Plasmids were transformed into E. coli BL21, and proteins were expressed with a C-terminal polyhistidine tag. Different induction strategies were used: overnight induction with lactose at 24 °C for Pry1, CRISP2, and PSP94 and 6 h of induction with 0.4 mM IPTG at 24 °C for the CAP domain of Pry1. Cells were collected and lysed, and the soluble cell lysate was incubated with nickel-nitrilotriacetic acid beads as per the manufacturer instructions (Qiagen). Beads were washed and loaded onto a Ni^2+-NTA column, and proteins were eluted with a buffer containing 60 mM NaH2PO4, 300 mM NaCl, and 300 mM imidazole, pH 8.0. […] Protein concentration was determined by Lowry assay using the Folin reagent and bovine serum albumin as protein standard.
MST experiments were performed to assess protein–protein, protein–lipid, and protein–calcium interactions using a Monolith NT.115 (Nanotemper Technologies). […] The dissociation constant Kd was obtained by plotting the normalized fluorescence (Fnorm) against the logarithm of ligand concentration. […]

How did the “complex formation between CRISP2 and PSP94” value ([1]; cells grown in 5 mM calcium) turn out when `[Ca+2]` [calcium, calcium chloride] was run?
Its value is “reduced”.

What about the “complex formation between CRISP2 and PSP94” value ([1]; cells grown in 10 mM calcium) of the same compound?
The value was “could no longer be detected”.

What about the Kd [2] of the same compound?
Its Kd is 376 ± 1.7 µM.

What about the “effect on sterol export by CRISP2 in the presence of PSP94” value [3] of the same compound?
Its value is “restored sterol binding and export by CRISP2”.

And the Kd [4]?
Its Kd is 0.052 ± 0.0009 µM.
